Data reported in PubChem BioAssay AID248 (DTP/NCI, 2004).
“And” between values parts separate entries of the source, which are not always exact repeats. Equal entries are not always repeated. Toxic doses and inconclusive results are not listed. Cut-off read from the data, not from the text of the source: active = T/C of 150% or more; inactive = T/C below 125%.

Tested on: L1210 leukemia ip in BDF1 mice, survival T/C
Assay: NCI In Vivo Anticancer Drug Screen. Data for tumor model L1210 Leukemia (intraperitoneal) in B6D2F1 (BDF1) mice
Conditions: endpoint: mean survival time, higher = longer survival
In short: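 In this screen, tumor-bearing mice given compound are compared to those given vehicle, and their survival values are reported as a treated-to-control quotient.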

[1] = dose: 100.0 mg/kg/injection, schedule: Q01DX001 (ip), vehicle: other
[2] = dose: 100.0 mg/kg/injection, schedule: Q04DX003 (ip), vehicle: saline with Tween-80
[3] = dose: 50.0 mg/kg/injection, schedule: Q01DX001 (ip), vehicle: carboxymethylcellulose (CMC)
[4] = dose: 100.0 mg/kg/injection, schedule: Q01DX001 (ip), vehicle: carboxymethylcellulose (CMC)
[5] = dose: 200.0 mg/kg/injection, schedule: Q01DX001 (ip), vehicle: carboxymethylcellulose (CMC)
[6] = dose: 100.0 mg/kg/injection, schedule: Q04DX003 (ip), vehicle: saline
[7] = dose: 200.0 mg/kg/injection, schedule: Q01DX009 (ip), vehicle: saline
[8] = dose: 200.0 mg/kg/injection, schedule: Q04DX003 (ip), vehicle: saline
[9] = dose: 400.0 mg/kg/injection, schedule: Q04DX003 (ip), vehicle: saline
[10] = dose: 25.0 mg/kg/injection, schedule: Q01DX009 (ip), vehicle: saline with Tween-80
[11] = dose: 50.0 mg/kg/injection, schedule: Q01DX009 (ip), vehicle: saline with Tween-80
[12] = dose: 100.0 mg/kg/injection, schedule: Q01DX009 (ip), vehicle: saline with Tween-80
[13] = dose: 100.0 mg/kg/injection, schedule: Q01DX009 (ip), vehicle: Klucel (hydroxypropylcellulose) (HPC)
[14] = dose: 200.0 mg/kg/injection, schedule: Q01DX009 (ip), vehicle: Klucel (hydroxypropylcellulose) (HPC)
[15] = dose: 400.0 mg/kg/injection, schedule: Q01DX009 (ip), vehicle: Klucel (hydroxypropylcellulose) (HPC)
[16] = dose: 100.0 mg/kg/injection, schedule: Q04DX002 (ip), vehicle: saline

Measured: T/C

S=C1NC(c2cccs2)N2C(=S)NC(c3cccs3)N12 (stereo not drawn)
inactive: dose: 100.0 mg/kg/injection, schedule: Q01DX009 (ip), vehicle: gum acacia 96 % of control | dose: 100.0 mg/kg/injection, schedule: Q04DX003 (ip), vehicle: gum acacia 92 % of control | dose: 200.0 mg/kg/injection, schedule: Q01DX009 (ip), vehicle: gum acacia 91 % of control | dose: 200.0 mg/kg/injection, schedule: Q04DX003 (ip), vehicle: gum acacia 97 % of control | dose: 400.0 mg/kg/injection, schedule: Q01DX009 (ip), vehicle: gum acacia 98 % of control | dose: 400.0 mg/kg/injection, schedule: Q04DX003 (ip), vehicle: gum acacia 97 % of control

O=C1c2ccccc2-c2c(N=Cc3ccc4c(c3)OCO4)c(Br)cc(Br)c21
inactive: [1] 93 % of control | dose: 200.0 mg/kg/injection, schedule: Q01DX001 (ip), vehicle: other 98 % of control | dose: 400.0 mg/kg/injection, schedule: Q01DX001 (ip), vehicle: other 95 % of control

Cc1ccc(C(=O)/C=C/N2CCN(c3ccccc3)CC2)c(C)c1
inactive: [2] 100 % of control | dose: 200.0 mg/kg/injection, schedule: Q04DX003 (ip), vehicle: saline with Tween-80 105 % of control | dose: 400.0 mg/kg/injection, schedule: Q04DX003 (ip), vehicle: saline with Tween-80 98 % of control

CC1(C)C(OS(C)(=O)=O)C(C)(C)C1OS(C)(=O)=O (stereo not drawn)
inactive: [3] 111 % of control | [4] 121 % of control | dose: 100.0 mg/kg/injection, schedule: Q01DX001 (sc), vehicle: carboxymethylcellulose (CMC) 108 % of control | [5] 100 % of control | dose: 200.0 mg/kg/injection, schedule: Q01DX001 (sc), vehicle: carboxymethylcellulose (CMC) 108 % of control | dose: 400.0 mg/kg/injection, schedule: Q01DX001 (ip), vehicle: carboxymethylcellulose (CMC) 100 % of control | dose: 400.0 mg/kg/injection, schedule: Q01DX001 (sc), vehicle: carboxymethylcellulose (CMC) 100 % of control

O=C(Cl)OCCOCCOC(=O)Cl
inactive: [6] 86 % of control | [7] 89 % of control | [8] 94 % of control | dose: 400.0 mg/kg/injection, schedule: Q01DX009 (ip), vehicle: saline 90 % of control | [9] 92 % of control

COC(=O)C1ON(C(=O)c2ccccc2)C(C)C2OC12 (stereo not drawn)
inactive: dose: 100.0 mg/kg/injection, schedule: Q04DX003 (ip), vehicle: Klucel (hydroxypropylcellulose) (HPC) 103 % of control | dose: 200.0 mg/kg/injection, schedule: Q04DX003 (ip), vehicle: Klucel (hydroxypropylcellulose) (HPC) 100 % of control | dose: 400.0 mg/kg/injection, schedule: Q04DX003 (ip), vehicle: Klucel (hydroxypropylcellulose) (HPC) 96 % of control

O=I(=O)c1ccccc1
inactive: [10] 101 % of control | [11] 103 % of control | [12] 97 % of control | [2] 96 % of control

Sc1ccc2ccccc2c1
inactive: [13] 94 % of control | [6] 91 % of control | [14] 121 % of control | [8] 88 % of control | [15] 110 % of control | [9] 86 % of control

CNC1CC(N)C(O)C(OC2OC(CO)C(O)C3OC4(OC(C(N)CO)C(O)C(O)C4O)OC23)C1O (stereo not drawn)
inactive: dose: 2.2 mg/kg/injection, schedule: Q01DX Z (ip), vehicle: saline 97 % of control | dose: 3.3 mg/kg/injection, schedule: Q01DX Z (ip), vehicle: saline 94 % of control | dose: 5.0 mg/kg/injection, schedule: Q01DX Z (ip), vehicle: saline 89 % of control | dose: 7.6 mg/kg/injection, schedule: Q01DX Z (ip), vehicle: saline 94 % of control

COc1ccc(-c2c(COC(C)=O)c(COC(C)=O)c3n2CCC3)cc1
inactive: dose: 50.0 mg/kg/injection, schedule: Q01DX009 (ip), vehicle: Klucel (hydroxypropylcellulose) (HPC) 113 % of control

CCCCCC(O)C(CO)CCCC (stereo not drawn)
inactive: [12] 100 % of control | dose: 200.0 mg/kg/injection, schedule: Q01DX009 (ip), vehicle: saline with Tween-80 95 % of control | dose: 400.0 mg/kg/injection, schedule: Q01DX009 (ip), vehicle: saline with Tween-80 94 % of control

Cc1cc(=O)cc(Nc2ccccc2)o1
inactive: dose: 100.0 mg/kg/injection, schedule: Q04DX002 (ip), vehicle: Klucel (hydroxypropylcellulose) (HPC) 93 % of control | dose: 200.0 mg/kg/injection, schedule: Q04DX002 (ip), vehicle: Klucel (hydroxypropylcellulose) (HPC) 90 % of control | dose: 400.0 mg/kg/injection, schedule: Q04DX002 (ip), vehicle: Klucel (hydroxypropylcellulose) (HPC) 101 % of control

Cc1ccc(/C([O-])=C(\C(=S)Nc2cccc(C(F)(F)F)c2)[n+]2ccccc2)cc1
inactive: [13] 103 % of control | [14] 103 % of control | [15] 94 % of control

CCOC(=O)C1(C(C)C)OC2(O)CCCCCN2C1=O (stereo not drawn)
inactive: dose: 50.0 mg/kg/injection, schedule: Q01DX009 (ip), vehicle: saline 95 % of control | dose: 100.0 mg/kg/injection, schedule: Q01DX009 (ip), vehicle: saline 100 % of control | [16] 89 % of control | [7] 95 % of control | dose: 200.0 mg/kg/injection, schedule: Q04DX002 (ip), vehicle: saline 92 % of control

C[N+](C)(C)CCNC(=O)C12CC3CC(CC(C3)C1)C2
inactive: dose: 25.0 mg/kg/injection, schedule: Q04DX002 (ip), vehicle: saline 89 % of control | dose: 50.0 mg/kg/injection, schedule: Q04DX002 (ip), vehicle: saline 94 % of control | [16] 86 % of control

CCOC(=O)c1ccc(OC(=O)Nc2ccc(F)cc2)cc1
inactive: [3] 106 % of control | dose: 50.0 mg/kg/injection, schedule: Q01DX009 (ip), vehicle: carboxymethylcellulose (CMC) 96 % of control and 105 % of control | dose: 50.0 mg/kg/injection, schedule: Q04DX002 (ip), vehicle: carboxymethylcellulose (CMC) 95 % of control and 103 % of control | [4] 104 % of control | dose: 100.0 mg/kg/injection, schedule: Q01DX009 (ip), vehicle: carboxymethylcellulose (CMC) 95 % of control and 99 % of control | dose: 100.0 mg/kg/injection, schedule: Q04DX002 (ip), vehicle: carboxymethylcellulose (CMC) 95 % of control and 107 % of control | [5] 101 % of control | dose: 200.0 mg/kg/injection, schedule: Q01DX009 (ip), vehicle: carboxymethylcellulose (CMC) 94 % of control | dose: 200.0 mg/kg/injection, schedule: Q04DX002 (ip), vehicle: carboxymethylcellulose (CMC) 103 % of control and 88 % of control

Nc1ncc(C(=O)O)c(N)n1
inactive: dose: 12.5 mg/kg/injection, schedule: Q01DX001 (ip), vehicle: other 101 % of control | dose: 12.5 mg/kg/injection, schedule: Q01DX009 (ip), vehicle: saline with Tween-80 110 % of control | dose: 12.5 mg/kg/injection, schedule: Q04DX003 (ip), vehicle: saline with Tween-80 101 % of control | dose: 25.0 mg/kg/injection, schedule: Q01DX001 (ip), vehicle: other 97 % of control | [10] 107 % of control | dose: 25.0 mg/kg/injection, schedule: Q04DX003 (ip), vehicle: saline with Tween-80 104 % of control | dose: 50.0 mg/kg/injection, schedule: Q01DX001 (ip), vehicle: other 101 % of control | [11] 102 % of control | dose: 50.0 mg/kg/injection, schedule: Q04DX003 (ip), vehicle: saline with Tween-80 108 % of control | [1] 103 % of control
